From US12479847B2 (DANA-FARBER CANCER INSTITUTE, INC., priority 2019, dated 2025)
Read-outs that look alike come from different tables or passages of the source.

What was measured:
Experiment in all cases: KINOMEscan (ScanMAX) kinase profiling
Assay type in all cases: binding
panel of 468 kinases [1] = target: T1, panel of 468 kinases (Homo sapiens, UniProt Q86YV6); settings: MYLK4; 1 μM; read-out: % control
T1 construct: purchased KINOMEscan (ScanMAX) service
T1 sequence (Q86YV6 1-388): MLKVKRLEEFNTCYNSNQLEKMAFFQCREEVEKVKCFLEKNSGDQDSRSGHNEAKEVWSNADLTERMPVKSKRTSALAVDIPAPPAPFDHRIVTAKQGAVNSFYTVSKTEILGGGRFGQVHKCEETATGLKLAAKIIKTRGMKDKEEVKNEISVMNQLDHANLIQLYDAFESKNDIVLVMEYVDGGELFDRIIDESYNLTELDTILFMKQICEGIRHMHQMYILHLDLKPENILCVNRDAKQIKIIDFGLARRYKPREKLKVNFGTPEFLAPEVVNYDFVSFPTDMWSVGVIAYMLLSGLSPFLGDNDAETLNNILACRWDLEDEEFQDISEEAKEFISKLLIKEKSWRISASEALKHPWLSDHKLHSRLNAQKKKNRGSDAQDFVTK

panel of 468 kinases [2] = target: T2, panel of 468 kinases (Homo sapiens, UniProt P23458); settings: 1 μM, read-out: % control
T2 construct: purchased KINOMEscan (ScanMAX) service
T2 sequence (P23458 whole entry): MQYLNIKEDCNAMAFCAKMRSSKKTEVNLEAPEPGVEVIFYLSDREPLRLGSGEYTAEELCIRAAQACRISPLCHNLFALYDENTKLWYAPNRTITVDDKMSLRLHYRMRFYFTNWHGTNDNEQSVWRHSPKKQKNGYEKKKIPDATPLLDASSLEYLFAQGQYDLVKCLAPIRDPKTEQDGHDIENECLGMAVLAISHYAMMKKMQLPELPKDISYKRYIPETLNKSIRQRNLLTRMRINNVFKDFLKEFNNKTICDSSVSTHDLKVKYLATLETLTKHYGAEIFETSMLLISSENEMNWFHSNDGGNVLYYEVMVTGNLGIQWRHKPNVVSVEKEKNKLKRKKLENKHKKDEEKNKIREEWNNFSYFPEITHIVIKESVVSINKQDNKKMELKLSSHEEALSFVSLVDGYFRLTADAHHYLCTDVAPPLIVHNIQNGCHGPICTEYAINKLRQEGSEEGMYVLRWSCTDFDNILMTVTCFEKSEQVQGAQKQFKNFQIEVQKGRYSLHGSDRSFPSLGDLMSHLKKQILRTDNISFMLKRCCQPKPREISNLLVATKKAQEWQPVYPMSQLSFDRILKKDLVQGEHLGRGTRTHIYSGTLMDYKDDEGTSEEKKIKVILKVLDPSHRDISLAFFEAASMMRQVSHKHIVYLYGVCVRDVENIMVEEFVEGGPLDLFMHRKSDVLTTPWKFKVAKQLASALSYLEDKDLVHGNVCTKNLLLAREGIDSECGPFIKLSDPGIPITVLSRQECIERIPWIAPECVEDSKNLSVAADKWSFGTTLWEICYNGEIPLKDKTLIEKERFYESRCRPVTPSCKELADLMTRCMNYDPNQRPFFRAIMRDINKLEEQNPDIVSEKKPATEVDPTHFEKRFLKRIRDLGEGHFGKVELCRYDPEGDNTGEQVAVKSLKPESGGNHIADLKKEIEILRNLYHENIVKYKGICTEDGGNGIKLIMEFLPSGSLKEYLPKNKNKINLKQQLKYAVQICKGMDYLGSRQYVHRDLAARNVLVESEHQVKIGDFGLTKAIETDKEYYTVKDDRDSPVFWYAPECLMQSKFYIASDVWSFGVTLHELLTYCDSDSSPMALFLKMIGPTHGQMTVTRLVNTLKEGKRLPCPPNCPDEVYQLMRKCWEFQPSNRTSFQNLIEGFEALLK

panel of 468 kinases [3] = target: T3, panel of 468 kinases (Homo sapiens, UniProt Q8N4C8); settings: MINK; 1 μM; read-out: % control
T3 construct: purchased KINOMEscan (ScanMAX) service
T3 sequence (Q8N4C8 whole entry): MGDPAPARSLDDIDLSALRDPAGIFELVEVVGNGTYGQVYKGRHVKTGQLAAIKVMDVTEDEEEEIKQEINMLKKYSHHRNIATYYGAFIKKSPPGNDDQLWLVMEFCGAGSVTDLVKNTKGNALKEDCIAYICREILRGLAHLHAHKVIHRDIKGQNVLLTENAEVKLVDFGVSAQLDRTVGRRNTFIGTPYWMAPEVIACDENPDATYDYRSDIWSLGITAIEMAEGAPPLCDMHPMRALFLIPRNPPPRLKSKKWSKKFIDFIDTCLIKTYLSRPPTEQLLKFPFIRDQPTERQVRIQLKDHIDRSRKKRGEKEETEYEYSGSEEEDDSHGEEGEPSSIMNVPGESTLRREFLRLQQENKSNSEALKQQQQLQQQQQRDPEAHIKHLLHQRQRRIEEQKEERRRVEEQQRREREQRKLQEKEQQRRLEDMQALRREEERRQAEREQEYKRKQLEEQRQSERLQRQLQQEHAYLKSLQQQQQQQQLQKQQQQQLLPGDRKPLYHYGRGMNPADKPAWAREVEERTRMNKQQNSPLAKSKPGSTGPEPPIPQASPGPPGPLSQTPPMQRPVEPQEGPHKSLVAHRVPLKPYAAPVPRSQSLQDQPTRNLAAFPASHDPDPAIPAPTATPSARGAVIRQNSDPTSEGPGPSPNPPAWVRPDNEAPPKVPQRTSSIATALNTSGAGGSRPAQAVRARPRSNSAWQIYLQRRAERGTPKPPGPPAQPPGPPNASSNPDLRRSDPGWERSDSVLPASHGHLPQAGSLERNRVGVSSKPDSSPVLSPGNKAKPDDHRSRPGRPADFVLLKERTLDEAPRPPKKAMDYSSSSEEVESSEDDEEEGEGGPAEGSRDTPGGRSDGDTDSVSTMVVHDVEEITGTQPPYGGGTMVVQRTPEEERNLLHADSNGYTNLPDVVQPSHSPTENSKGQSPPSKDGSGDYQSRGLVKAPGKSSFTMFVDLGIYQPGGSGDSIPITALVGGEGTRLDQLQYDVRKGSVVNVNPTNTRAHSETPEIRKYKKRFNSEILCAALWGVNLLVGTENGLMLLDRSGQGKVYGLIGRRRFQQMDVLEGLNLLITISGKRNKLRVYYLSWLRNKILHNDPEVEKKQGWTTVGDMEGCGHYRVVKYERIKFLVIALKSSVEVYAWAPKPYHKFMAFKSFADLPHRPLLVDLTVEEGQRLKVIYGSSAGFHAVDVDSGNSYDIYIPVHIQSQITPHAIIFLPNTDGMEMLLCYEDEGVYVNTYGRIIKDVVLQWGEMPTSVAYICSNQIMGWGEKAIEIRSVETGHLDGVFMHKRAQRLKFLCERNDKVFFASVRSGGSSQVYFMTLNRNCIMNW

panel of 468 kinases [4] = target: T4, panel of 468 kinases (Homo sapiens, UniProt P52333); settings: JAK3(JH1domain-catalytic); 1 μM; read-out: % control
T4 construct: purchased KINOMEscan (ScanMAX) service
T4 sequence (P52333 1-1124): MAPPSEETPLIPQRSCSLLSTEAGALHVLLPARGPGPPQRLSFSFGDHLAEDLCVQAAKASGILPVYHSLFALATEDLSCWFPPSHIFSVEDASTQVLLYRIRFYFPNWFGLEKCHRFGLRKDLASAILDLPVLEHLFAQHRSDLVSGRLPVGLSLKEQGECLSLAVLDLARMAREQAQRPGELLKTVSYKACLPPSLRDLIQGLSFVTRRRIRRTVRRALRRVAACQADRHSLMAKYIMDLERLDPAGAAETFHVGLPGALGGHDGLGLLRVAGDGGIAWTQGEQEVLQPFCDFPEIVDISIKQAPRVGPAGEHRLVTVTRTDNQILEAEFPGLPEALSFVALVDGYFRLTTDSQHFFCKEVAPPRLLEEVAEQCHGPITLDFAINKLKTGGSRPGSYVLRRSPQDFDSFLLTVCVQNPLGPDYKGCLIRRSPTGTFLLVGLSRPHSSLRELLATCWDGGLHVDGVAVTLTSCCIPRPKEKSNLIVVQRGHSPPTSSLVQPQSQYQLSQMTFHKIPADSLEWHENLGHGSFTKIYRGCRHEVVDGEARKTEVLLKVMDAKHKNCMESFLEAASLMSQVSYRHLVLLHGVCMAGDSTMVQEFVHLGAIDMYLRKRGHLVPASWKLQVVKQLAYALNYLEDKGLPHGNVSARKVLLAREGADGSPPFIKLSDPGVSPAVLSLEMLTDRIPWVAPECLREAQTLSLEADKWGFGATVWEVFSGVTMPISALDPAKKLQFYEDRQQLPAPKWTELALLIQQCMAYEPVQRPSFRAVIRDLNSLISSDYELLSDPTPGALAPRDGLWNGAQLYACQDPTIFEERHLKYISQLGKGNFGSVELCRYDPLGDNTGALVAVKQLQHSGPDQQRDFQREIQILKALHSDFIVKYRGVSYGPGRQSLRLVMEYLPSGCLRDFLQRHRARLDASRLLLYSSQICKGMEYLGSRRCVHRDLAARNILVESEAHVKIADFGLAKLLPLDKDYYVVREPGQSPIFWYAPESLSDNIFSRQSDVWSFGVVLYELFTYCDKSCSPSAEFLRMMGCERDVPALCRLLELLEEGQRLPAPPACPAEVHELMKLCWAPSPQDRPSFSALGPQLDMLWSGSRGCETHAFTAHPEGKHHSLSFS

panel of 468 kinases [5] = target: T5, panel of 468 kinases (Homo sapiens, UniProt Q13627); settings: DYRK1A; 1 μM; read-out: % control
T5 construct: purchased KINOMEscan (ScanMAX) service

panel of 468 kinases [6] = target: T6, panel of 468 kinases (Homo sapiens, UniProt P57078); settings: RIPK4; 1 μM; read-out: % control
T6 construct: purchased KINOMEscan (ScanMAX) service
T6 sequence (P57078 1-832): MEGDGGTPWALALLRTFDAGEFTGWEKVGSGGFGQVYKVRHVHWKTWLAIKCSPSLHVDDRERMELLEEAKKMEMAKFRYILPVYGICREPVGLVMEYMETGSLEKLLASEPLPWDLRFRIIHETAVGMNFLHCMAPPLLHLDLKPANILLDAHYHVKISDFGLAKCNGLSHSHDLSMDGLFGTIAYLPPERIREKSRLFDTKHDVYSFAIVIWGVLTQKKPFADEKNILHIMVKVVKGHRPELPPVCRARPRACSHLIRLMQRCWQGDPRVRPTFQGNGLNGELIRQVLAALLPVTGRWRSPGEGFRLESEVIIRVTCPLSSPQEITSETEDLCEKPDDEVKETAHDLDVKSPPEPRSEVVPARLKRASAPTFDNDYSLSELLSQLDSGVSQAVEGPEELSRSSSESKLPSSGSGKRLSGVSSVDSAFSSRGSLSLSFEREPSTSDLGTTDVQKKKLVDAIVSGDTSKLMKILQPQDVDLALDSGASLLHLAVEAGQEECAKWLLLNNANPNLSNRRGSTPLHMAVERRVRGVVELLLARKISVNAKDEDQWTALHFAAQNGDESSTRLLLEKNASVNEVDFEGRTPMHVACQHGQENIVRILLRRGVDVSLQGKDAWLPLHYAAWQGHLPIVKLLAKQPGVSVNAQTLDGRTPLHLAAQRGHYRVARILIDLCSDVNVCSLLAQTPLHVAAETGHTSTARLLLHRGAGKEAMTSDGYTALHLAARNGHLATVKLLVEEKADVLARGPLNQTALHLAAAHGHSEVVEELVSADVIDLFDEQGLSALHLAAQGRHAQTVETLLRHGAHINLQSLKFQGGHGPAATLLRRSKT

Compound	remaining binding at 1 µM (panel of 468 kinases [1]) [%]	remaining binding at 1 µM (panel of 468 kinases [2]; JAK1(JH1domain-catalytic)) [%]	remaining binding at 1 µM (panel of 468 kinases [2]; JAK1(JH2domain-pseudokinase)) [%]	remaining binding at 1 µM (panel of 468 kinases [3]) [%]	remaining binding at 1 µM (panel of 468 kinases [4]) [%]	remaining binding at 1 µM (panel of 468 kinases [5]) [%]	remaining binding at 1 µM (panel of 468 kinases [6]) [%]
CNc1nc(Nc2ccc(C(=O)N3CCC(N4CCOCC4)CC3)c3c2OCO3)nc2[nH]cc(Cl)c12 [Compound 75, (7-((5-chloro-4-(methylamino)-7H-pyrrolo[2,3-d]pyrimidin-2-yl)amino)benzo[d][1,3]dioxol-4-yl)(4-morpholinopiperidin-1-yl)methanone]	100	100	64	18	25	8.9	89
CNc1nc(Nc2ccc(S(=O)(=O)N3CCC(N4CCOCC4)CC3)cc2OC)nc2[nH]cc(Cl)c12 [Compound 12, 5-chloro-N2-(2-methoxy-4-((4-morpholinopiperidin-1-yl)sulfonyl)phenyl)-N4-methyl-7H-pyrrolo[2,3-d]pyrimidine-2,4-diamine]	100	100	73	75	77	14	76
CNc1nc(Nc2ccc(P3(=O)CCN(C4CCOCC4)CC3)cc2OC)nc2[nH]cc(Cl)c12 [Compound 77, 4-(4-((5-chloro-4-(methylamino)-7H-pyrrolo[2,3-d]pyrimidin-2-yl)amino)-3-methoxyphenyl)-1-(tetrahydro-2H-pyran-4-yl)-1,4-azaphosphinane 4-oxide]	64	100	34	63	86	4.7	98
